Data: patent US11548855B2, “Pyrazole amide compound and application thereof, and fungicide” (Shandong United Pesticide Industry Co. Ltd., priority 2017, dated 2023)

Key:
wheat powdery mildew [1] = conditions: cited from earlier work
wheat powdery mildew [2] = conditions: cited from earlier work; remark: listed apart in the source
cucumber powdery mildew [3] = experiment: Field trial, cucumber powdery mildew; type: in vivo; conditions: 100 mg/L, sprayed twice
Experimental: I. Cucumber Powdery Mildew Test Method:
Spray method: Stein and leaf spray (Applicator: Xinkangda lithium battery electric sprayer).
Test crop: cucumber (cultivars: Tianjiao7)
(§1) The test was carried out in Shenyang, the test field was loam with rich organic matters and normal management of fertilizer and water, and no other pesticide was applied during the test.
The arrangement of the test plot was random block permutation; the area of the test plot: 15 m^2; repeat times: 3 times; spray time and frequency: period between Sep. 28, 2018 and Oct. 11, 2018, twice. Spray dosage: each treatment was repeated 3 times, the total water consumption was 8 L. No other pesticide was applied during the test. […] 15-20 days after the second treatment, the incidence of disease spots in each plot was investigated.
The incidence of disease spots in each plot was investigated by randomly selecting 4 samples/plot and 2 plants/samples, all leaves/plant, the incidence of the whole plant was recorded by counting the number of disease leaves and determining the incidence grade.
Grading standard (in units of leaves):
(§2) Grade 0: no leaf-spot area;
(§3) Grade 1: the ratio of leaf-spot area to leaf area is less than 5%;
Grade 3: the ratio of leaf-spot area to leaf area is between 6-10%;
Grade 5: the ratio of leaf-spot area to leaf area is between 11-20%;
Grade 7: the ratio of leaf-spot area to leaf area is between 21-40%;
Grade 9: the ratio of leaf-spot area to leaf area is more than 40%;
(§4) According to the relevant content of the “Guidelines for the field efficacy trials of pesticides of the People's Republic of China (PRC)”, the disease index was calculated according to the grading standard, and the control effect in a unit of % was calculated based on the disease index, and the test data of significance analysis was performed by using DPS evaluation system (DMRT).

wheat powdery mildew [4] = experiment: Field trial, wheat powdery mildew; type: in vivo, Erysiphe graminis; conditions: 100 mg/L, sprayed once
Experimental: II. The Wheat Powdery Mildew Test Method:
(§5) Spray method: Stein and leaf spraying (Applicator: Xinkangda lithium battery electric sprayer).
Test crops: wheat (cultivars: Liaochun 10)
as §1
The arrangement of the test plot was random block permutation; the area of the test plot: 15 m^2; repeat times: 3 times; spray time and frequency: Sep. 17, 2018, once. Spray dosage: each treatment was repeated 3 times, the total water consumption was 8 L. No other pesticide was applied during the test.
The incidence of disease spots in each plot was investigated by diagonal selecting 4 samples/plot and 20 plants/samples, and the first leaf below the flag leaf of each plant was investigated.
(§6) The grading standard of crop disease was as follows:
as §2, §3
(§7) Grade 3: the ratio of leaf-spot area to leaf area is between 6-25%;
(§8) Grade 5: the ratio of leaf-spot area to leaf area is between 26-50%;
(§9) Grade 7: the ratio of leaf-spot area to leaf area is between 51-75%;
(§10) Grade 9: the ratio of leaf-spot area to leaf area is between 76-100%;
as §4

cucumber powdery mildew [5] = experiment: Greenhouse pot test, cucumber powdery mildew; type: in vivo; conditions: greenhouse pot
Experimental: (§11) Test method: each of the test compounds in Table 1 was dispensed to 5 wt % emulsifiable concentrate (hereinafter referred to as 5% EC). The greenhouse pot test was used in each experiment, and the effective concentrations of each compound were illustrated in Table 1.
Cucumber powdery mildew: cucumber seedling in a true leaf period with uniform growth was selected, and dried in the shade for 24 h after spray treatment. Fresh cucumber powdery mildew spores on the cucumber leaves were collected and washed, and filtered through a double gauze to prepare a spores suspension with concentration of about 100,000/mL, then spray inoculation was applied. The test materials inoculated were moved into a greenhouse (lighting 21-23° C.), after 8 days, the grading investigation was carried out according to the disease incidence condition of blank control, and the control effect in a unit of % was calculated according to disease index.
(§12) The investigation method: “Guidelines for the field efficacy trials of pesticides” was adopted as the grading standard, and the control effect in a unit of % was calculated based on the disease index. Disease index=Σ(number of diseased leaves at each grade×relative grade value)×100/(total number of leaves×9); Control effect (%)=(disease index of control−disease index of treated)×100/disease index of control;
(§13) The compounds provided by the present disclosure and some control compounds were tested by the same methods in the Test example 1, except that the effective concentrations of the compounds in this Test example are shown in Table 2.

[6] = system: soybean rust (Phakopsora pacchyrhizi Sydow); experiment: Greenhouse pot test, soybean rust; type: in vivo
Experimental: as §11
Soybean rust: two-leaf stage potted soybean seedling with uniform growth was selected and made foliar spray treatment with 5% EC, the blank control sprayed with clean water was additionally arranged, three replicates were carried out. After 24 h, the leaves of the host plants were inoculated with sporangial suspensions of the fungi soybean rust (Phakopsora pacchyrhizi Sydow), the plants were stored in humidity chamber (temperature 20-25° C., relative humidity>95%) and then transferred to greenhouse (25±1° C.) 8-16 h after infection. After 7 days, the screening results were investigated according to the disease incidence condition of blank control.
as §12, §13

[7] = system: wheat powdery mildew (Erysiphe graminis); experiment: Greenhouse pot test, wheat powdery mildew; type: in vivo
From the text: as §11
Wheat powdery mildew: two-leaf stage potted wheat seedling with uniform growth was selected and made foliar spray treatment with 5% EC, the blank control sprayed with clean water was additionally arranged, three replicates were carried out. After 24 h, the leaves of the host plants were inoculated by shake-down method with sporangial suspensions of the fungi wheat powdery mildew (Erysiphe graminis), the plants were stored in a greenhouse (25±1° C.). After 7 days, the screening results were investigated according to the disease incidence condition of blank control.
as §12, §13

soybean rust = experiment: Field trial, soybean rust; type: in vivo, Phakopsora pacchyrhizi Sydow; conditions: sprayed 2 times
Experimental: III. The Soybean Rust Test Method:
as §5
Test crops: soybean (cultivars: Glycine max(L) Merr)
as §1
The arrangement of the test plot was random block permutation; the area of the test plot: 25 m^2; repeat times: 3 times; spray time and frequency: 2 times on Aug. 11, 2018 and Aug. 21, 2018 respectively. Spray dosage: each treatment was repeated 3 times, the total water consumption was 8 L. No other pesticide was applied during the test. […] 15-20 days after the second spray treatment, the control effect was investigated.
The incidence of disease spots in each plot was investigated by diagonal selecting 5 samples/plot and 20 plants/samples, 10 leaves/plant was surveyed.
as §6, §2, §3, §7, §8, §9, §10, §4

[8] = system: rice sheath blight fungi (Rhizoctonia solami); experiment: Greenhouse pot test, rice sheath blight; type: in vivo
Experimental: as §13
In addition, the test method for rice sheath blight as following steps:
The potted rice seedling with uniform growth was selected, and dried in the shade for 24 h after spray treatment, then inoculated 3 blocks of 0.25 cm^2 rice sheath blight fungi (Rhizoctonia solami) at the base of seedling by clamp inoculation bacterium block method. The test materials inoculated were moved into greenhouse (temperature: lighting 28° C., dark 25° C., relative humidity 95%), after 7 days, investigate 5 leaves of per block treatment, the grading investigation was carried out according to the disease incidence condition of sheaths and leaves of rice, “Guidelines for the field efficacy trials of pesticides” was adopted as the grading standard, the disease index was calculated according to the grading standard, and the control effect in a unit of % was calculated according to disease index.

[9] = system: corn rust (Puccinia sorghi); experiment: Greenhouse pot test, corn rust; type: in vivo
Experimental: as §11
Corn rust: two-three leaf stage potted corn seedling with uniform growth was selected and made foliar spray treatment with 5% EC, the blank control sprayed with clean water was additionally arranged, three replicates were carried out. After 24 h, the leaves of the host plants were inoculated with sporangial suspensions of the fungi corn rust (Puccinia sorghi), the plants were stored in humidity chamber (temperature: lighting 25° C., dark 20° C., relative humidity 95-100%) and then transferred to greenhouse (25±1° C.) 24 h after infection. After 7 days, the screening results were investigated according to the disease incidence condition of blank control.
as §12, §13

Structure (SMILES): CNC(=O)/C(=N/OC)c1ccccc1CO/N=C(C)/C=C/c1c(Cl)cccc1Cl [fenaminstrobin]
- activity against wheat powdery mildew in greenhouse pot test (wheat powdery mildew [1]): extremely high activity
- control effect in field test (wheat powdery mildew [2]): worse

Structure (SMILES): CON(C(=O)c1cn(C)nc1C(F)F)C(C)Cc1c(Cl)cc(Cl)cc1Cl (stereo not drawn) [Pydiflumetofen]
- Control effect (%) Cucumber powdery mildew (cucumber powdery mildew [3]): 86.0%
- Control effect (%) Wheat powdery mildew (wheat powdery mildew [4]): 91.0%

Structure (SMILES): OC(Cc1ccccc1Cl)(Cn1nc[nH]c1=S)C1(Cl)CC1 (stereo not drawn) [Prothioconazole]
- pest or weed control at 1 µg/mL (cucumber powdery mildew [5]; Cucumis sativus, 192 h, 1 mg/L, read-out: Control effect (%) Cucumber powdery mildew): 75%
- pest or weed control at 2 µg/mL (cucumber powdery mildew [5]; Cucumis sativus, 192 h, 2 mg/L, read-out: Control effect (%) Cucumber powdery mildew): 80%
- pest or weed control at 4 µg/mL (cucumber powdery mildew [5]; Cucumis sativus, 192 h, 4 mg/L, read-out: Control effect (%) Cucumber powdery mildew): 90%
- pest or weed control at 6.25 µg/mL (cucumber powdery mildew [5]; Cucumis sativus, 192 h, 6.25 mg/L, read-out: Control effect (%) Cucumber powdery mildew): 85%
- pest or weed control at 25 µg/mL (cucumber powdery mildew [5]; Cucumis sativus, 192 h, 25 mg/L, read-out: Control effect (%) Cucumber powdery mildew): 98%
- pest or weed control at 100 µg/mL (cucumber powdery mildew [5]; Cucumis sativus, 192 h, 100 mg/L, read-out: Control effect (%) Cucumber powdery mildew): 100%
- pest or weed control at 0.5 µg/mL ([6]; Glycine max, 168 h, 0.5 mg/L, read-out: Control effect (%) Soybean rust): 95%
- pest or weed control at 1 µg/mL ([6]; Glycine max, 168 h, 1 mg/L, read-out: Control effect (%) Soybean rust): 100%
- pest or weed control at 2 µg/mL ([6]; Glycine max, 168 h, 2 mg/L, read-out: Control effect (%) Soybean rust): 100%
- pest or weed control at 4 µg/mL ([6]; Glycine max, 168 h, 4 mg/L, read-out: Control effect (%) Soybean rust): 100%
- Control effect (%) Wheat powdery mildew (wheat powdery mildew [4]): 93%
- pest or weed control at 1 µg/mL ([7]; Blumeria graminis, 168 h, 1 mg/L, read-out: Control effect (%) Wheat powdery mildew): 30%
- pest or weed control at 2 µg/mL ([7]; Blumeria graminis, 168 h, 2 mg/L, read-out: Control effect (%) Wheat powdery mildew): 50%
- pest or weed control at 4 µg/mL ([7]; Blumeria graminis, 168 h, 4 mg/L, read-out: Control effect (%) Wheat powdery mildew): 70%
- Control effect (%) (soybean rust; dosage 50 mg/L): 91.15%

Structure (SMILES): Cn1cc(C(=O)Nc2cccc3c2[C@@H]2CC[C@H]3C2=C(Cl)Cl)c(C(F)F)n1 (racemic) [Benzovindiflupyr]
- Control effect (%) Cucumber powdery mildew (cucumber powdery mildew [5]; 1.5625 mg/L): 20%
- Control effect (%) Cucumber powdery mildew (cucumber powdery mildew [5]; 6.25 mg/L): 80%
- Control effect (%) Cucumber powdery mildew (cucumber powdery mildew [5]; 25 mg/L): 100%
- Control effect (%) Cucumber powdery mildew (cucumber powdery mildew [5]; 100 mg/L): 100%
- Control effect (%) Soybean rust ([6]; 0.5 mg/L): 95%
- Control effect (%) Soybean rust ([6]; 1 mg/L): 98%
- Control effect (%) Soybean rust ([6]; 1.5625 mg/L): 100%
- Control effect (%) Soybean rust ([6]; 3.1250 mg/L): 100%
- Control effect (%) Wheat powdery mildew (wheat powdery mildew [4]): 95%
- Control effect (%) Rice sheath blight ([8]; 0.5 mg/L): 30%
- Control effect (%) Rice sheath blight ([8]; 1 mg/L): 40%
- Control effect (%) Rice sheath blight ([8]; 1.5625 mg/L): 55%
- Control effect (%) Rice sheath blight ([8]; 3.1250 mg/L): 65%
- Control effect (%) Wheat powdery mildew ([7]; 1.5625 mg/L): 50%
- Control effect (%) Wheat powdery mildew ([7]; 3.1250 mg/L): 70%
- Control effect (%) Corn rust ([9]; 1.5625 mg/L): 95%
- Control effect (%) Corn rust ([9]; 3.1250 mg/L): 98%
- Control effect (%) (soybean rust; dosage 50 mg/L): 91.46%
- Control effect (%) (soybean rust; dosage 75 mg/L): 94.51%
- Control effect (%) (soybean rust; dosage 100 mg/L): 97.15%

Structure (SMILES): Cn1cc(C(=O)Nc2ccccc2Oc2ccc(C(F)(F)F)cc2I)c(C(F)F)n1 [Compound 4]
- pest or weed control at 1.5625 µg/mL ([6]; Glycine max, 168 h, 1.5625 mg/L, read-out: Control effect (%) Soybean rust): 98%
- pest or weed control at 3.125 µg/mL ([6]; Glycine max, 168 h, 3.1250 mg/L, read-out: Control effect (%) Soybean rust): 100%
- pest or weed control at 6.25 µg/mL ([6]; Glycine max, 168 h, 6.25 mg/L, read-out: Control effect (%) Soybean rust): 100%
- pest or weed control at 25 µg/mL ([6]; Glycine max, 168 h, 25 mg/L, read-out: Control effect (%) Soybean rust): 100%
- pest or weed control at 100 µg/mL ([6]; Glycine max, 168 h, 100 mg/L, read-out: Control effect (%) Soybean rust): 100%
- pest or weed control at 1.5625 µg/mL ([7]; Blumeria graminis, 168 h, 1.5625 mg/L, read-out: Control effect (%) Wheat powdery mildew): 30%
- pest or weed control at 3.125 µg/mL ([7]; Blumeria graminis, 168 h, 3.1250 mg/L, read-out: Control effect (%) Wheat powdery mildew): 70%
- pest or weed control at 6.25 µg/mL ([7]; Blumeria graminis, 168 h, 6.25 mg/L, read-out: Control effect (%) Wheat powdery mildew): 10%
- pest or weed control at 25 µg/mL ([7]; Blumeria graminis, 168 h, 25 mg/L, read-out: Control effect (%) Wheat powdery mildew): 25%
- pest or weed control at 100 µg/mL ([7]; Blumeria graminis, 168 h, 100 mg/L, read-out: Control effect (%) Wheat powdery mildew): 60%
- pest or weed control at 1.5625 µg/mL ([9]; Puccinia sorghi, 168 h, 1.5625 mg/L, read-out: Control effect (%) Corn rust): 50%
- pest or weed control at 3.125 µg/mL ([9]; Puccinia sorghi, 168 h, 3.1250 mg/L, read-out: Control effect (%) Corn rust): 90%
- pest or weed control at 6.25 µg/mL ([9]; Puccinia sorghi, 168 h, 6.25 mg/L, read-out: Control effect (%) Corn rust): 98%
- pest or weed control at 25 µg/mL ([9]; Puccinia sorghi, 168 h, 25 mg/L, read-out: Control effect (%) Corn rust): 100%
- pest or weed control at 100 µg/mL ([9]; Puccinia sorghi, 168 h, 100 mg/L, read-out: Control effect (%) Corn rust): 100%
- Control effect (%) (soybean rust; dosage 50 mg/L): 80.14%
- Control effect (%) (soybean rust; dosage 75 mg/L): 85.62%
- Control effect (%) (soybean rust; dosage 100 mg/L): 93.11%
